Key:
Rattus norvegicus = test: Antidiabetic activity against STZ-induced diabetic Sprague-Dawley rat assessed as reduction in fasting blood glucose level at 0.1 mg/kg,po for 2 months; type: functional; design: scale not given: the % may be the effect or the level left; details: 1460 h
Mus musculus = test: Antidiabetic activity against diabetic KKAy mouse model assessed as decrease in plasma glucose level at 50 mg/kg,po by glucose analyzer; type: functional; design: scale not given: the % may be the effect or the level left

Structure (SMILES)	Activity (Rattus norvegicus) [%]	Activity (Mus musculus) [%]
Cc1oc(-c2ccccc2)nc1CCC(=O)c1ccc(CC2SC(=O)NC2=O)cc1 (configuration not stated) [DARGLITAZONE]	80	
Cc1c(C)c2c(c(C)c1O)CCC(C)(COc1ccc(CC3SC(=O)NC3=O)cc1)O2 (configuration not stated) [TROGLITAZONE]		38.5

Source: ChEMBL document CHEMBL5260796, “Thiazolidinediones and PPAR orchestra as antidiabetic agents: From past to present” (Eur J Med Chem, 2017)
